Test results taken from PubChem BioAssay AID1845196 (Molecular Pharmacology Branch, DTP, NCI, 2023).
pIC50: −log10 of the molar value.

System: 292921-168-R tumor spheroid viability
Test: Anticancer human tumor 292921-168-R patient-derived pancreatic carcinoma cell line growth inhibition
Settings: spheroids with HUVEC and MSC; for pIC50: curve of first compound; for viability, T/C: stronger effect = lower value
Outline: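 Complex tumor spheroids combined malignant cells with endothelial cells and mesenchymal stem cells. DNA-damaging drugs and DNA repair inhibitors were tested alone and in combination, at half-log dilutions down from clinical Cmax (top 10 microM if Cmax unknown), 0.25% DMSO final.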
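Further: spheroids exposed to compounds for 7 days.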

[2H]c1nc(C)nc([2H])c1-c1cc(NC[C@@H](C)c2cccc3c(C(=O)NC)ccnc23)ncn1 + COc1cc2c(cc1O)CCNC21CSC2c3c(OC(C)=O)c(C)c4c(c3C(COC1=O)N1C(O)C3Cc5cc(C)c(OC)c(O)c5C(C21)N3C)OCO4
pIC50 (second compound 30 pM): < 5.00 | pIC50 (second compound 94.9 pM): < 5.00 | pIC50 (second compound 0.0003 µM): > 7.50 | pIC50 (second compound 0.000949 µM): > 7.50 | pIC50 (second compound 0.003 µM): > 7.50 | viability, T/C (second compound 30 pM, first compound 0.0316 µM): 108% | viability, T/C (second compound 30 pM, first compound 0.1 µM): 99.4% | viability, T/C (second compound 30 pM, first compound 0.316 µM): 99.7% | viability, T/C (second compound 30 pM, first compound 1 µM): 117% | viability, T/C (second compound 30 pM, first compound 3.16 µM): 105% | viability, T/C (second compound 30 pM, first compound 10 µM): 103% | viability, T/C (second compound 94.9 pM, first compound 0.0316 µM): 99.2% | viability, T/C (second compound 94.9 pM, first compound 0.1 µM): 102% | viability, T/C (second compound 94.9 pM, first compound 0.316 µM): 104% | viability, T/C (second compound 94.9 pM, first compound 1 µM): 106% | viability, T/C (second compound 94.9 pM, first compound 3.16 µM): 101% | viability, T/C (second compound 94.9 pM, first compound 10 µM): 99.8% | viability, T/C (second compound 0.0003 µM, first compound 0.0316 µM): 37.5% | viability, T/C (second compound 0.0003 µM, first compound 0.1 µM): 58.4% | viability, T/C (second compound 0.0003 µM, first compound 0.316 µM): 52.1% | viability, T/C (second compound 0.0003 µM, first compound 1 µM): 48.2% | viability, T/C (second compound 0.0003 µM, first compound 3.16 µM): 46% | viability, T/C (second compound 0.0003 µM, first compound 10 µM): 41% | viability, T/C (second compound 0.000949 µM, first compound 0.0316 µM): 4.08% | viability, T/C (second compound 0.000949 µM, first compound 0.1 µM): 3.23% | viability, T/C (second compound 0.000949 µM, first compound 0.316 µM): 4.22% | viability, T/C (second compound 0.000949 µM, first compound 1 µM): 2.93% | viability, T/C (second compound 0.000949 µM, first compound 3.16 µM): 3.26% | viability, T/C (second compound 0.000949 µM, first compound 10 µM): 2.21% | viability, T/C (second compound 0.003 µM, first compound 0.0316 µM): 0.18% | viability, T/C (second compound 0.003 µM, first compound 0.1 µM): 0.19% | viability, T/C (second compound 0.003 µM, first compound 0.316 µM): 0.19% | viability, T/C (second compound 0.003 µM, first compound 1 µM): 0.18% | viability, T/C (second compound 0.003 µM, first compound 3.16 µM): 0.19% | viability, T/C (second compound 0.003 µM, first compound 10 µM): 0.34%

O=C(c1cc(Cc2n[nH]c(=O)c3ccccc23)ccc1F)N1CCN(C(=O)C2CC2)CC1 + Cn1nnc2c(C(N)=O)ncn2c1=O
pIC50 (second compound 1 µM): 4.89 | pIC50 (second compound 3.16 µM): 4.75 | pIC50 (second compound 10 µM): 5.06 | pIC50 (second compound 31.6 µM): 5.39 | pIC50 (second compound 100 µM): 6.24 | viability, T/C (second compound 1 µM, first compound 0.0949 µM): 89.2% | viability, T/C (second compound 1 µM, first compound 0.3 µM): 93.1% | viability, T/C (second compound 1 µM, first compound 0.949 µM): 87% | viability, T/C (second compound 1 µM, first compound 3 µM): 86.1% | viability, T/C (second compound 1 µM, first compound 9.49 µM): 55.6% | viability, T/C (second compound 1 µM, first compound 30 µM): 34.2% | viability, T/C (second compound 3.16 µM, first compound 0.0949 µM): 100% | viability, T/C (second compound 3.16 µM, first compound 0.3 µM): 101% | viability, T/C (second compound 3.16 µM, first compound 0.949 µM): 94% | viability, T/C (second compound 3.16 µM, first compound 3 µM): 93.6% | viability, T/C (second compound 3.16 µM, first compound 9.49 µM): 63.4% | viability, T/C (second compound 3.16 µM, first compound 30 µM): 38.5% | viability, T/C (second compound 10 µM, first compound 0.0949 µM): 94.7% | viability, T/C (second compound 10 µM, first compound 0.3 µM): 92.4% | viability, T/C (second compound 10 µM, first compound 0.949 µM): 96.5% | viability, T/C (second compound 10 µM, first compound 3 µM): 82.2% | viability, T/C (second compound 10 µM, first compound 9.49 µM): 48% | viability, T/C (second compound 10 µM, first compound 30 µM): 28.3% | viability, T/C (second compound 31.6 µM, first compound 0.0949 µM): 88% | viability, T/C (second compound 31.6 µM, first compound 0.3 µM): 86.6% | viability, T/C (second compound 31.6 µM, first compound 0.949 µM): 76% | viability, T/C (second compound 31.6 µM, first compound 3 µM): 56.8% | viability, T/C (second compound 31.6 µM, first compound 9.49 µM): 32.2% | viability, T/C (second compound 31.6 µM, first compound 30 µM): 21.4% | viability, T/C (second compound 100 µM, first compound 0.0949 µM): 74.6% | viability, T/C (second compound 100 µM, first compound 0.3 µM): 58.2% | viability, T/C (second compound 100 µM, first compound 0.949 µM): 44% | viability, T/C (second compound 100 µM, first compound 3 µM): 29% | viability, T/C (second compound 100 µM, first compound 9.49 µM): 19.1% | viability, T/C (second compound 100 µM, first compound 30 µM): 17.2%
